Experimental data as given in US20030108610A1, “Methods and compositions for the delivery of pharmaceutical agents and/or the prevention of adhesions” (priority 1996, published 2003).

Experiments:
[1] = 20% w/w poloxamer 407F
Experimental: Hydrophilic co-surfactants in the form of fatty acid soaps (i.e. sodium oleate, sodium laurate, sodium caprate, and sodium caprylate) were obtained from Nu-Chek Prep. (Elysian, Minn.).
For phase behavior studies, samples were loaded into 5 ml Wheaton vacuoles (Fisher Scientific, Pittsburgh, Pa.), and flame-sealed. The vacuoles were then immersed in a constant temperature bath. For temperatures less than 60° C., phase behavior was determined in a water bath (Koehler, Bohemia, N.Y.). At higher temperatures an oil bath (Haake, model DC3, Germany) was utilized. Temperature was raised in two degree increments from ca. 1° C. to 120° C. Samples were allowed to equilibrate for at least 1 hour at constant temperature prior to examination. Since the cubic liquid crystalline phase is isotropic (i.e. not birefringent), the determination of the gel boundary is somewhat subjective. Once equilibrium was reached, the vials were simply inverted and gravity was allowed to determine if the sample was in the sol or gel state.

[2] = Drug solubilization in poloxamer 407-water systems, apparent distribution coefficient micellar/aqueous phase; type: physicochemical
Experimental: The next day the sample was warmed momentarily to 40° C. to hasten solubilization. This process was repeated two or three times to ensure saturation. […] Prior to analysis, the samples were filtered through a 0.2 μm nylon filter syringe to remove unsolubilized drug. Samples were assayed for solubilized drug concentrations by absorbance spectroscopy (see below).
Drug Concentration Determinations. The samples were diluted to a suitable concentration with ethanol (for water insoluble drugs) or DI water. Drug concentrations were measured at the appropriate wavelength for each drug (see Table I) using a UV/Vis spectrophotometer (Beckman model DU-65). Concentrations were determined using Beer's law from the appropriate calibration curve (Table II). Gentamicin sulfate determination was performed by the UCSD Medical Center laboratory.
Where S and So are the concentration of solubilized drug in the presence and absence of poloxamer, respectively.

[3] = In-vitro release rate of drugs in poloxamer gels; type: physicochemical; settings: within the same poloxamer formulations
Experimental: In-vitro release rate of drugs in poloxamer gels. The in-vitro release rates of drugs in poloxamer-based gels were determined using a modified USP dissolution apparatus (Hanson Research model SR6) equipped with enhancer cells. […] Membranes (1.2 μm cellulose ester membranes, 25 mm diameter, type RAWP) were presoaked in phosphate buffer and placed on the cell. Approximately 0.6 mL of sample in the fluid sol phase was then loaded into each of the enhancer cells. The cells were subsequently closed and the gel phase was allowed to form at room temperature prior to introduction into the dissolution vessels. The dissolution paddles were rotated at a speed of 100 rpm (approximating the hydrodynamic stress found at the peritoneal cavity) and were positioned approximately 1 cm from the top of the cells for all experiments. The in-vitro release of drug from the gels was monitored over a period of 4 hr. One mL samples were collected every 0.5 hr. The vessel was refilled with fresh buffer every time a sample aliquot was removed, and each sample was run in duplicate.

Row | SMILES | soap concentration required to melt / completely suppress the 20% poloxamer 407F gel [1] [%] | partitioning between poloxamer micelle and bulk aqueous phase [2] | differences in diffusion coefficients or mean dissolution times (MDT) between drugs [3]
1 | CCCCCCCCCC(=O)[O-].[Na+] [sodium caprate] | > 5 |  | 
2 | CCCCCCCC(=O)[O-].[Na+] [8:0 soap, sodium caprylate] | ~11.5 |  | 
3 | CCCCCCCCCCCC(=O)[O-].[Na+] [12:0 soap, sodium laurate] | 2.5 |  | 
4 | Cc1ccc(C(=O)c2ccc(CC(=O)O)n2C)cc1 [sodium tolmetin, Tolmetin Sodium] |  | partitions almost entirely into the bulk aqueous phase | no differences were observed
